Assay results taken from PubChem BioAssay (NCI).
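Step 1: Grow cells in 96-well plates. Step 2: Expose to compound for 48 hours at 5 concentrations. Step 3: Interpolate endpoints linearly; if unreached, use highest concentration. GI50 is the concentration that inhibits growth by half. TGI is the concentration that stops growth completely.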

How the values were obtained:
Assay in all cases: NCI tumour cell line growth inhibition, 48 h
[1] = test system: SNB-78 CNS
[2] = test system: XF 498 CNS
[3] = test system: ACHN renal
[4] = test system: HOP-62 NSCLC
[5] = test system: SF-295 CNS
[6] = test system: SK-MEL-28 melanoma
[7] = test system: A498 renal
[8] = test system: HT29 colon
[9] = test system: OVCAR-3 ovarian
[10] = test system: MCF7 breast
[11] = test system: P388/ADR leukemia

| SMILES | TGI [1] | TGI [2] | TGI [3] | TGI [4] | TGI [5] | TGI [6] | TGI [7] | TGI [8] | TGI [9] | TGI [10] | TGI [11] | GI50 [3] | GI50 [6] | GI50 [10] | GI50 [8] | GI50 [9] | GI50 [4] | GI50 [5] | GI50 [7] |
| --- | --- | --- | --- | --- | --- | --- | --- | --- | --- | --- | --- | --- | --- | --- | --- | --- | --- | --- | --- |
| CC1CC(c2ccc([N+](=O)[O-])cc2)=Nc2ccccc2S1=O (stereo not drawn) | > 100 µM | 95.1 µM | 40.6 µM | 75 µM | 55.2 µM | 43.6 µM | 43.2 µM | 27.2 µM | – | – | – | – | – | – | – | – | – | – | – |
| Cc1ccc(C(=O)N/N=C(\N=Nc2ccccc2)c2ccc(N(CCC#N)CCC#N)cc2C)cc1 | – | – | > 100 µM | 52.9 µM | > 100 µM | > 100 µM | > 100 µM | > 100 µM | > 100 µM | > 100 µM | – | – | – | – | – | – | – | – | – |
| C/C=C1/C(=O)O[C@]23C=C[C@@H]4C(C(=O)OC)=CO[C@H](O[C@@H]12)[C@@H]43 | 23.6 µM | 3.37 µM | – | 22 µM | 5.24 µM | 7.63 µM | 1.58 µM | 9.06 µM | 3.95 µM | 3.76 µM | 2.41 µM | – | – | – | – | – | – | – | – |
| COc1cc2c(cc1O)N=C[C@@H]1CCC(O)N1C2=O (mixture of isomers) | 46.3 µM | 1.2 µM | – | 2.91 µM | 5.77 µM | 2.84 µM | 0.928 µM | 72.9 µM | 1.49 µM | 37 µM | 5.15 µM | – | – | – | – | – | – | – | – |
| CC(CNc1nc(Nc2ccc(Cl)c(Cl)c2)nc(C(Cl)(Cl)Cl)n1)N(C)C (stereo not drawn) | – | – | 2.94 µM | – | – | 3.29 µM | – | 3.11 µM | – | 3.16 µM | – | 1.56 µM | 1.83 µM | 1.7 µM | 1.66 µM | – | – | – | – |
| O=C1NC(=O)C2(CCc3ccc(N(CCCl)CCCl)cc32)N1 (stereo not drawn) | > 100 µM | – | – | 35.5 µM | > 61.5 µM | 38.1 µM | 33.1 µM | 59.3 µM | 41.4 µM | 61.4 µM | 36.7 µM | – | – | – | – | – | – | – | – |
| CCc1ncc(C(C)(O)c2ccccc2)n1Cc1ccccc1 (stereo not drawn) | – | – | > 100 µM | – | > 100 µM | > 100 µM | – | > 100 µM | > 100 µM | > 100 µM | – | – | – | – | – | – | – | – | – |
| COc1ccc2oc3c(ccc[n+]3C)c(=O)c2c1 | – | – | > 100 µM | > 100 µM | > 100 µM | > 100 µM | > 100 µM | > 100 µM | > 100 µM | > 100 µM | – | – | – | – | – | – | – | – | – |
| CC(=O)Nc1nc(C)c(-c2cc3c(c(S(C)(=O)=O)c2)C(=O)N([C@@H](C)C2CC2)C3)s1 | – | – | > 100 µM | > 100 µM | > 100 µM | > 100 µM | 53.5 µM | > 100 µM | > 100 µM | > 100 µM | – | 28.3 µM | 28.1 µM | 23.7 µM | 31 µM | 30.9 µM | 28.2 µM | 31.6 µM | 19 µM |
